Experiments:
[1] = co-administration of ketoconazole (potent CYP3A4 inhibitor) ref 11; cited from earlier work
[2] = Excretion and mass balance in urine and feces; format: in vivo, human; conditions: single oral administration
From the text: Six healthy male volunteers, 25–45 years of age, with a mean body weight of 83.3 kg (range 64.5–94.4) and a mean body mass index of 26.9 kg/m^2 (range 20.2–29.9) participated in the study. […] The subject release criterion was defined as follows: the combined urine and fecal radioactivity excretion for two consecutive days should fall below 1% of the dose administered.
Detailed procedures on sample collection, storage, and shipment are described in Online Resource 1. […] Urine and feces collected from each subject were pooled at predose and every 24 h thereafter. Fecal homogenates were prepared by adding water (four times the feces weight) and homogenizing.
(§1) TRA analysis was carried out at ABC Laboratories. The radioactivity in plasma (duplicate per time point) and urine samples (triplicate per time point) was quantitated by direct counting in a Beckman LS6000SC or LS6500 liquid scintillation counter (PerkinElmer Life and Analytical Sciences, Boston, MA, USA). Whole blood (duplicate per time point) and fecal homogenate (triplicate per time point) samples were oxidized, and the resultant ^14CO2 was trapped in Carbosorb (Calgon Carbon Corporation, Pittsburgh, PA, USA) in combination with Permafluor, followed by liquid scintillation counting to determine the radioactivity. Individual samples were counted for 5 min for whole blood and fecal matrices, and 10 min for plasma and urine matrices. Predose blood, plasma, urine, and feces samples served as respective control samples to determine and subtract the background radioactivity in the analysis.
All urine voided was collected and stored in containers at 5±3 °C until the collection interval was completed. Subjects voided in the morning prior to study drug administration.
Multiple collections of urine during each collection interval from each individual subject were pooled. The urine samples from each collection interval were well mixed, accurately weighed, and assessed for its pH. A 100 ml sample from each collection interval from each subject was aliquoted into a separately labeled container to be sent to ABC Laboratories for radioactivity analysis. An approximately 10 ml sample from each collection interval from each subject on day 8 and each day thereafter was used for TRA analysis at Celerion (Lincoln, NE). All urine samples were kept frozen at −80 ± 15 °C.
Stool collections began approximately 24 h prior to drug administration until the end of the postdose sampling period. The 24 h predose samples were used as control samples for the radioactivity analysis and metabolite profiling. Feces were collected daily (24 h collection periods) until subjects were discharged from the clinical research unit.
All fecal samples were collected in polypropylene containers; toilet paper was collected separately. The weight of each sample was recorded. Multiple collections of feces during each collection interval from each individual subject were pooled. The feces samples were thoroughly homogenized with water (4X the weight of the feces). A 100 g sample was aliquoted into a separately labeled container to be sent to ABC Laboratories for radioactivity analysis. An approximately 10 g sample from each collection interval from each subject on day 8 and each day thereafter was used for TRA analysis at Celerion. All fecal homogenate samples were kept frozen at −80 ± 15 °C.

[3] = Metabolite profiling of urine (HPLC-radiochromatography); format: in vivo, human; conditions: 0–72 h pool
Method: Predose and 0–72-h urine samples (grand pool of all six subjects) were prepared. Urine samples (5 mL) were centrifuged, the supernatant was transferred to a 15-mL polypropylene tube and placed on ice; the residues were extracted with 1 mL of methanol and the methanol extracts were added to the supernatants. The combined extracts were evaporated under nitrogen and reconstituted in 0.2 mL of methanol. A 0.010-mL aliquot of the reconstituted solution was removed for determination of radioactivity, and the remainder was transferred to HPLC vials and stored at −80 °C.
A Finnigan Surveyor HPLC system (Thermo Fisher Scientific Inc., San Jose, CA, USA), consisting of an LC pump plus an autosampler and a UV–Vis plus detector, was used mostly for profiling (except the post-24-h plasma samples, which were analyzed using a Dionex HPLC system). A Phenomenex® Gemini® C18, 5-μm, 3.0 × 100-mm column (Phenomenex Inc., Torrance, CA, USA) was used along with a C-12 guard column (4 × 2 mm). LC conditions were as follows: solvent A was 10 mM ammonium bicarbonate in water (pH 10.0) and solvent B was 100% methanol and the flow rate was 0.8 mL/min. The following gradient was employed (B%): 0–5 min (20%), 32 min (42%), 33 min (60%), 55 min (70%), 56–60 min (95%), and 62–70 min (20%).
Reconstituted solvent extracts (0.050–0.10 mL) of plasma, urine, or feces were injected onto the HPLC column. The post-column eluate was split after UV detection into two streams (0.64 and 0.16 mL/min). The 0.64-mL stream was diverted to a fraction collector (Gilson FX 204; Gilson Medical Electronics, Middleton, WI, USA) to be collected in 96-well plates at 0.16 min/well (ScintiPlates; PerkinElmer Life Sciences, Shelton, CT, USA), and the 0.16-mL stream was directed to the mass spectrometer. The solvent in the 96-well plates was removed at 40 °C using a Genevac evaporator (Genevac, Inc., Stone Ridge, NY, USA).
The radioactivity counts per minute (CPM) in each well was determined using a MicroBeta scintillation counter (PerkinElmer Life and Analytical Sciences). The resulting CPM vs. time data were processed using Excel (Microsoft Corporation, Seattle, WA, USA). The CPM in each well was background-subtracted (using the average CPM values of the blank region of the HPLC run). Radiochromatographic profiles were obtained by plotting the resulting net CPM values against time after injection. Radioactive peaks in the chromatographic profiles were identified, and the radioactivity in each peak was summed and reported as a percentage of TRA in the HPLC run.

[4] = Plasma pharmacokinetics of TRA, ponatinib and metabolites after a single oral 45-mg [14C]ponatinib dose
Method: The subject release criterion was defined as follows: the combined urine and fecal radioactivity excretion for two consecutive days should fall below 1% of the dose administered.
Detailed procedures on sample collection, storage, and shipment are described in Online Resource 1. […] Fecal homogenates were prepared by adding water (four times the feces weight) and homogenizing.
as §1
M14 was quantitated using a different LC/MS/MS method (Online Resource 2). The pharmacokinetic analysis was carried out using WinNonlin® v6.4 (Pharsight Corp., Mountain View, CA, USA).
Aliquots of 30 µl of calibration standards, quality controls, and incurred plasma samples were transferred into a 96-well plate. Then 150 µl of ice-cold acetonitrile containing 50 ng/ml of AP30376 (d6-AP24600, internal standard) were added. The 96-well plate was vortexed for 10 min and then centrifuged at 4750 rpm for 20 min at 4°C. 100 µl aliquots of the supernatants were transferred into another 96-well plate and the samples were analyzed by liquid chromatography tandem mass spectrometry.

[5] = male, human, in vivo, po, 45 mg

Cc1ccc(C(=O)Nc2ccc(CN3CCN(C)CC3)c(C(F)(F)F)c2)cc1C#Cc1cnc2cccnn12.Cl [Ponatinib, 3-(imidazo[1,2-b]pyridazin-3-ylethynyl)-4-methyl-N-(4-((4-methylpiperazin-1-yl)methyl)-3-(trifluoromethyl)phenyl)benzamide hydrochloride]
increase of AUC0–∞ on co-administration of ketoconazole [1]: 47%
increase of C max on co-administration of ketoconazole [1]: 78%
elimination pathway N-demethylation, share of dose [2]: 8.3%
elimination pathway hydroxylation, share of dose [2]: 18.0%
elimination pathway methylation, share of dose [2]: 8.4%
elimination pathway amide bond hydrolysis, share of dose ([2]; estimated from 81% of urinary TRA and 5.4% of dose in urine): 4.4%
% of total radioactive dose [3]: <0.05%
% Distribution in matrix ([3]; % of urinary TRA): Trace levels
plasma level at 144 h postdose ([4]; human plasma, 144 h postdose): at or below detectable limits
AUC(0-t) [4, 5]: 3.48 µM·h
Tmax [4, 5]: 5 h
half-life [4, 5]: 1640 min
concentration at 144 h ([4]; male, human, plasma, oral, 45 mg): < 2.4 nM

From PMC5344956 (Cancer Chemotherapy and Pharmacology, 2017)
